From publication PMC10045534, “Preparation and Evaluation of 6-Gingerol Derivatives as Novel Antioxidants and Antiplatelet Agents” (Antioxidants, 2023)
Where two headings read alike, the source gives them in different places. One block for each molecule: values may come before it.

What was measured:
[1] = Peroxynitrite scavenging (pyrogallol red); settings: % inhibition at 500 µM; mean ± SEM, n = 3
Procedure: Peroxynitrite was synthesised by a continuous flow system using syringe pumps as published previously. Briefly, an acidic solution of hydrogen peroxide (0.6 M H2O2, 0.7 M HCl) was pumped to a junction alongside of sodium nitrite solution (0.6 M) at a flow rate of 1.5 mL/min. After passing 10 cm of tubing, it was mixed with a sodium hydroxide solution (1.5 M), also pumped at 1.5 mL/min. The resulting peroxynitrite solution was a bright yellow colour. The tubing around the reaction was submerged in ice. The concentration of the solution was determined by spectrophotometry and was adjusted to 30 mM with 0.1 M NaOH solution.
In a 96-well microplate 245 µL of pyrogallol red (100 µM final concentration, dissolved in 0.1 M glycine buffer) was mixed with 50 µL of sample (0.5 mM final concentration, dissolved in DMSO) and 5 µL ONOO^– solution (500 µM final concentration, freshly prepared). After mixing and keeping it at room temperature for 30 min the absorbance was measured at 550 nm using a FluoStar Optima plate reader (software version 2.20R2, BMG Labtech, Ortenberg, Germany).

xanthine oxidase (XO) = molecular target: T1, xanthine oxidase (XO) (Bos taurus, UniProt P80457); assay: Xanthine oxidase inhibition, spectrophotometric; type: biochemical; settings: for XO Inhibition (%): % inhibition at 100 µM, mean ± SEM, n = 3; for inhibition at 100 µM: read-out: XO Inhibition (%)
T1 construct: purchased Sigma (Merck KGaA)
Procedure: The xanthine oxidase (XO) inhibitory activity of the compounds was determined using continuous spectrophotometric rate based on a modified protocol of Sigma. […]. In a 96-well plate, the final reaction mixture consisted of 10 µL of sample (dissolved in DMSO, […] stock solution, 100 µM final), 100 µL of xanthine solution (0.15 mM, pH = 7.4), 140 µL of buffer (potassium phosphate, pH = 7.5) and 50 µL of XO (0.2 units/mL). When measuring the enzyme activity, control buffer was used in place of the sample. Allopurinol was applied as a control. The reaction was initiated by the automatic addition of 50 µL of XO solution. The absorbance of XO-induced uric acid production from xanthine was measured at 290 nm for 3 min in a 96-well plate on a BMG Labtech FluoStar Optima plate reader. The inhibitory percentage values were calculated by using Graph Pad Prism 8.0 (La Jolla, CA, USA).

[2] = DPPH free radical scavenging assay; settings: for IC50: 30 min, room temperature, MeOH, mean ± SEM, n = 2, read-out: DDPH IC50
Procedure: (§1) All bioactivity data processing, including the calculation of inhibition percentage, mean and corresponding standard error of the mean (SEM), and IC50 values, was performed by GraphPad Prism 8.0 (La Jolla, CA, USA). IC50 values were calculated from the sigmoidal dose–response curves obtained by the log(inhibitor) vs. response and variable slope (DPPH assay) or the log(inhibitor) vs. normalised response and variable slope nonlinear regression model. On the results obtained, no statistical evaluation was performed; instead, differences greater than two-fold were considered relevant. Plotting of the antiplatelet and COX-1 inhibitory IC50 values and the linear regression of the data was performed by Microsoft Excel.
DPPH (1,10-diphenyl-2-picrylhydrazyl) was purchased from Thermo Fisher Scientific. DPPH free radical scavenging assay was performed with some modifications based on the method by previous study. Briefly, in a 96-well microplate, microdilutions of samples (100 µL, starting from 200 µM in HPLC grade MeOH) were made and 100 µL of DPPH reagent (100 µM in MeOH) was added. After 30 min at room temperature in the dark, the absorbance was measured at 550 nm using a FluoStar Optima plate reader (software version 2.20R2, BMG Labtech Ortenberg, Germany). For the blank control, MeOH was used. The scavenging activity was calculated as Inhibition (%) = (A0 − As)/A0 × 100, and IC50 values were calculated by GraphPad Prism 8.0 (La Jolla, CA, USA).

COX-1 enzyme = molecular target: T2, COX-1 enzyme (Ovis aries, UniProt P05979); assay: COX-1 inhibitor screening kit, fluorometric (BioVision K548-100); type: biochemical; settings: for LLE(COX-1): LLE = pIC50 − logPpredicted; for IC50: mean ± SEM, n = 2
T2 construct: purchased BioVision (via VWR International Kft.) K548-100
T2 sequence (P05979 25-600): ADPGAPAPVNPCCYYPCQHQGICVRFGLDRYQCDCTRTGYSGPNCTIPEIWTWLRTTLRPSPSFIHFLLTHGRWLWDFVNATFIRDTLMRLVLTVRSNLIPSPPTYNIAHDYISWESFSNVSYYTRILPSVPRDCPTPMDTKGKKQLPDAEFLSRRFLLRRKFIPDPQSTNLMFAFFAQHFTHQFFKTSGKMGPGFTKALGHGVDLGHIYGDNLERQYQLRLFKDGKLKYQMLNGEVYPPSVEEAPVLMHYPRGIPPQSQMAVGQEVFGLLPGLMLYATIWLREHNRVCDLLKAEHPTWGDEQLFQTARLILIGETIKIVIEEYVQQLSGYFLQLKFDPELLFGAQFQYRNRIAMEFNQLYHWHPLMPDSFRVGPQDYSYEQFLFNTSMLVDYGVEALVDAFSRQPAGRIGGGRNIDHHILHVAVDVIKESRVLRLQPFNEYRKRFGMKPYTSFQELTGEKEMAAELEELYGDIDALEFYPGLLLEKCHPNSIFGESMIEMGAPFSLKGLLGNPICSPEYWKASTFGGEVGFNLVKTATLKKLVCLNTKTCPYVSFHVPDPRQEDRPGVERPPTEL
Procedure: COX-1 inhibitory activity was tested based on the fluorometric method as described in BioVision’s COX-1 inhibitor screening kit leafkit (K548-100, BioVision, CA, USA). Sample solutions were prepared by dissolving in DMSO and subsequently buffer, to get desired concentrations. In a 96-well white plate (655101, F-bottom, Grenier bio-one, Germany), 80 µL reaction mix (containing 76 µL assay buffer, 1 µL COX Probe, 2 µL COX cofactor, and 1 µL COX-1 enzyme) was added to 10 µL sample solution, DMSO and assay buffer to get test wells assigned for sample screen (S), negative control (N) and blank, respectively. An aliquot of 10 µL of arachidonic/NaOH solution was added to each well using a multi-channel pipette to initiate the reaction at the same time, and the fluorescence of each well was measured kinetically at Ex/Em 550/610 nm, at 25OC for 10 min using a FluoStar Optima plate reader (BMG Labtech, Ortenberg, Germany). The COX inhibitory activity of SC560, a standard inhibitor, was also determined.
The change in fluorescence between two points, T1 and T2 were determined, and relative inhibition was calculated according to the following equation:% Inhibition = (ΔN − ΔS)/ΔN × 100 (1) where N is the absorbance of the negative control, and S is that of the sample.
Dose-effect studies on the compounds were used to determine the concentration that inhibits 50% of the enzyme activity. The sigmoidal dose–response model was obtained by using the software GraphPad Prism 8.0 (La Jolla, CA, USA), and these were used to determine the IC50 values of the compounds.

washed human platelets = assay: Arachidonic acid-induced platelet aggregation (turbidimetric aggregometer); type: cell-based; settings: washed human platelets treated 3 min, then arachidonic acid (100 μM), mean ± SEM, n = 3, read-out: Antiplatelet IC50
Procedure: as §1
Human platelet suspension (3 × 10^8/mL in Tyrode’s buffer) was prepared as previously described. The protocol for this study was approved by the institutional review board of Kaohsiung Medical University Hospital (Kaohsiung City, Taiwan). Platelets pre-treated with DMSO (vehicle control) or test compounds were stimulated with arachidonic acid (AA), and platelet aggregation was measured using turbidimetric aggregometer (Chrono-Log Co., Havertown, PA, USA) at 37 °C under stirring conditions (1200 rpm).

[3] = Oxygen radical absorbance capacity (ORAC); settings: 1 µM sample; mean ± SEM, n = 3
Procedure: AAPH ((2,20-Azobis(2-methyl-propionamidine) dihydrochloride) free radical and Trolox standard were purchased from Sigma-Aldrich Hungary. Fluorescein was purchased from Fluka Analytical, Tokyo, Japan. ORAC assay was carried out In a 96-well microplate based on the method from previous study. Briefly, 20 µL of the samples (1 µM final concentration, dissolved in phosphate buffer, pH = 7.4, containing 1% MeOH) were mixed with 60 µL of AAPH (12 mM final concentration, dissolved in phosphate buffer, pH = 7.4) and 120 µL of fluorescein solution (70 nM final concentration, dissolved in phosphate buffer), then the fluorescence was measured (excitation at λ = 485 nm, and emission at λ = 520 nm) through 3 h with 1.5-min cycle intervals with a BMG Labtech FluoStar Optima plate-reader. All experiments were carried out in triplicate, and Trolox was used as standard. The antioxidant capacity is expressed as Trolox Equivalent (TE), as calculated using GraphPad Prism 8.0 (La Jolla, CA, USA).

[4] = Kinetic aqueous solubility in PBS pH 7.4; type: physicochemical; settings: PBS (pH 7.4), 37 °C, pH 7.4, aqueous buffer, kinetic from dmso stock, after 2 h at 37 °C in PBS, 500 μM target concentration, mean ± SEM, n = 3
Procedure: Preparative purifications over RP-HPLC were performed on a Kinetex XB C18 (5 μm, 250 × 21.2 mm) column on an Armen Spot Prep II integrated HPLC purification system (Gilson, Middleton, WI, USA) with dual-wavelength detection, with an adequately chosen combination of acetonitrile–water, and a flow rate of 15 mL/min. The purity of the compounds obtained was determined by RP-HPLC analyses on a system of two Jasco PU 2080 pumps, a Jasco AS-2055 Plus intelligent sampler connected to a JASCO LC-Net II/ADC equipped with a Jasco MD-2010 Plus PDA detector (Jasco International Co. Ltd., Hachioji, Tokyo, Japan) utilizing a Kinetex C-18 (5 μm, 250 × 4.6 mm) column (Phenomenex Inc., Torrance, CA, USA) and applying a gradient of 30%–100% aqueous AcN in 30 min followed by 100% ACN for 10 min with a flow rate of 1 mL/min. Analysis of samples from the PAMPA and kinetic solubility assays was performed the same way, by using 3-point calibrations and integrating each compound at its UV absorption maximum.
In a 96-well polypropylene plate (Greiner Bio-One, Kremsmünster, Austria), 15 μL stock solutions were added to 285 μL PBS (pH 7.4) to make starting donor solution with 500 μM as target concentration. For each sample, 3 replicates were measured. The samples were covered and shaken at 37 °C, 300 rpm for 2 h (Heidolph Titramax 1000, Heidolph Instruments GmbH & Co. KG, Schwabach, Germany). After that, each sample was transferred into a filter plate (MSSBLPC, Multiscreen Filter plate, Merck kGaA) and filtered (Vaccum Manifold, Merck kGaA, Darmstadt, Germany). The filtrates were transferred into HPLC vials, and acetonitrile (AcN) was added to aliquot to avoid precipitation. The final solvent ratio was AcN:PBS (70:30). Filtrate concentration was determined by HPLC-UV (see Section 2.1) using 3-points calibration.

T1 sequence (P80457 2-1332 limits assumed): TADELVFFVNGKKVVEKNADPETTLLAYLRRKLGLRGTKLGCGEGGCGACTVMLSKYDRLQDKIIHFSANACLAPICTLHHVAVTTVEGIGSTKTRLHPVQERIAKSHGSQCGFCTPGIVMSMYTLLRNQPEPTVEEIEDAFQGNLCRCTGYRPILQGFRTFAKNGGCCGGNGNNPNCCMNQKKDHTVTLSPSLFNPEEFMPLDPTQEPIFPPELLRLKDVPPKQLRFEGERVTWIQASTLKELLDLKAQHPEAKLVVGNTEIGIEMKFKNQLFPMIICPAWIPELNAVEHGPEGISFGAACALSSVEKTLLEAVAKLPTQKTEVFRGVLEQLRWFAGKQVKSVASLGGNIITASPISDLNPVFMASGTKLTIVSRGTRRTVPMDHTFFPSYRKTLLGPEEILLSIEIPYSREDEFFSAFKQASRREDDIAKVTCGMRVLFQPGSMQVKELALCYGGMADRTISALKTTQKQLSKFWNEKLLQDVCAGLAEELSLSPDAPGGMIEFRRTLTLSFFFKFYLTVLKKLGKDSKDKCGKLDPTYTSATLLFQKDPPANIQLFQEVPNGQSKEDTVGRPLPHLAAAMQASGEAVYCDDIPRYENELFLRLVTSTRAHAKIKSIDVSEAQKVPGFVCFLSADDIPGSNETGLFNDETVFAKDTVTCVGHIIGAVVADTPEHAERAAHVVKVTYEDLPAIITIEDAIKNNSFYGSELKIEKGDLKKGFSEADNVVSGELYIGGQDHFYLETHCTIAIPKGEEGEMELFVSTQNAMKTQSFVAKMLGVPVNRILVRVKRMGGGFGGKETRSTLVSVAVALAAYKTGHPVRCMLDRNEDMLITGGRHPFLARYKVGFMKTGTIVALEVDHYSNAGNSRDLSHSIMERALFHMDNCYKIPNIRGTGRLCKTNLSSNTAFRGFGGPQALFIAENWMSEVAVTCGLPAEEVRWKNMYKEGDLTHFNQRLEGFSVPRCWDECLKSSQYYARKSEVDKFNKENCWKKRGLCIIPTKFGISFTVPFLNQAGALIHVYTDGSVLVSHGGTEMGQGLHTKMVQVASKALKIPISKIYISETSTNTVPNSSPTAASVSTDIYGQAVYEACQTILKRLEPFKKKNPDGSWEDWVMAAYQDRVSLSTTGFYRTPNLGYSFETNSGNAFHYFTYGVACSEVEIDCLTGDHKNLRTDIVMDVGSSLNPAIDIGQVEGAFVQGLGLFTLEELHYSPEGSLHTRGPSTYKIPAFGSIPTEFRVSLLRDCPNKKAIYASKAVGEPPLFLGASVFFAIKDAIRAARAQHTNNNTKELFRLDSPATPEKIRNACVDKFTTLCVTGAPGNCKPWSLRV

XO Inhibition (%) (xanthine oxidase (XO)): <5.0%
IC50 [2]: 9.04 ± 0.19 µM
LLE(COX-1) (COX-1 enzyme): 1.14
IC50 (COX-1 enzyme): 23.1 ± 9.3 µM
IC50 (washed human platelets): 4.1 ± 1 µM
SMILES: CCCCCC(=O)CC(=O)/C=C/c1ccc(O)c(OC)c1 [Compound 11, 6-dehydrogingerdione]
ONOO^– Scavenging (%) [1]: <5.0%
ORAC TE [3]: 1.98 ± 0.12 Trolox equivalents (TE)

solubility kinetic at 2 h [4]: 54 ± 1.3 µM
SMILES: CCCCC/C(O)=C/C(=O)/C=C/c1ccc(O)c(OC)c1 [Compound 11A]

solubility kinetic at 2 h [4]: 54 ± 1.3 µM
SMILES: CCCCCC(=O)/C=C(O)/C=C/c1ccc(O)c(OC)c1 [Compound 11B]

solubility kinetic at 2 h [4]: 54 ± 1.3 µM
SMILES: CCCCCC(=O)CC(=O)/C=C/c1ccc(O)c(OC)c1 [Compound 11C]

inhibition at 100 µM (xanthine oxidase (XO)): < 5%
IC50 [2]: > 200 µM
IC50 (COX-1 enzyme): > 200 µM
IC50 (washed human platelets; Platelet, 0.05 h): 71.7 ± 28.3 µM
SMILES: CCCCCC(=O)CC(=O)/C=C/c1ccc(O)cc1 [Compound 12, (E)-1-(4-hydroxyphenyl)dec-1-ene-3,5-dione]
ONOO^– Scavenging (%) [1]: <5.0%
DPPH scavenging activity (in words) [2]: inactive
ORAC TE [3]: 2.89 ± 0.49 Trolox equivalents (TE)

solubility kinetic at 2 h [4]: 15.6 ± 0.1 µM
SMILES: CCCCC/C(O)=C/C(=O)/C=C/c1ccc(O)cc1 [Compound 12A]

solubility kinetic at 2 h [4]: 15.6 ± 0.1 µM
SMILES: CCCCCC(=O)/C=C(O)/C=C/c1ccc(O)cc1 [Compound 12B]

solubility kinetic at 2 h [4]: 15.6 ± 0.1 µM
SMILES: CCCCCC(=O)CC(=O)/C=C/c1ccc(O)cc1 [Compound 12C]

XO Inhibition (%) (xanthine oxidase (XO)): <5.0%
IC50 [2]: 10.9 ± 0.69 µM
LLE(COX-1) (COX-1 enzyme): 1.53
IC50 (COX-1 enzyme): 11.8 ± 5.4 µM
IC50 (washed human platelets): 3.6 ± 0.9 µM
SMILES: CCCCCC(=O)CC(=O)CCc1ccc(O)c(OC)c1 [Compound 13, 6-gingerdione]
ONOO^– Scavenging (%) [1]: <5.0%
ORAC TE [3]: 2.60 ± 0.06 Trolox equivalents (TE)

solubility kinetic at 2 h [4]: 315 ± 23.7 µM
SMILES: CCCCC/C(O)=C/C(=O)CCc1ccc(O)c(OC)c1 [Compound 13A]

solubility kinetic at 2 h [4]: 315 ± 23.7 µM
SMILES: CCCCCC(=O)/C=C(\O)CCc1ccc(O)c(OC)c1 [Compound 13B]

solubility kinetic at 2 h [4]: 315 ± 23.7 µM
SMILES: CCCCCC(=O)CC(=O)CCc1ccc(O)c(OC)c1 [Compound 13C]

SMILES: Oc1ncnc2[nH]ncc12 [allopurinol, reference compound]
inhibition at 100 µM (xanthine oxidase (XO)): 98.8 ± 0.11%
